Source: US20230085307A1, “PYRIDAZINONE COMPOUND AND HERBICIDE” (NISSAN CHEMICAL CORPORATION, priority 2019, published 2023)

How the values were obtained:
[1] = system: Chinese sprangletop; experiment: Test Example 3: herbicidal effect by foliage application, Wagner pot (Table 18, symbol D); assay type: in vivo, chinese sprangletop (Leptochloa chinensis); settings: 320 g/ha
Procedure, shortened: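 Plants were sown in alluvial soil held under 0.1–0.5 cm standing water and grown 14 days in a greenhouse at 25–30 °C. An emulsifiable formulation, water-diluted to the set dose, was then sprayed onto the foliage, and effects were scored three weeks later using previously defined criteria.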

[2] = system: late watergrass; experiment: Test Example 2: herbicidal activity, application during weed generation under submerged conditions (Table 17, symbol A); assay type: in vivo, late watergrass (Echinochloa oryzicola); settings: AAH 320 g/ha; application during weed generation, submerged conditions
Procedure, shortened: (§1)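 In this pot test, flooded alluvial soil (water depth 4 cm) holds all three species sown as a mixture. Once seedlings have one to two leaves, the compound's emulsion, thinned with water to the intended dose, is poured on the water; grading follows after three weeks on the earlier criteria.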

[3] = system: blackgrass; experiment: Test Example 4: herbicidal effect by soil treatment (Table 19, symbol J); assay type: in vivo, blackgrass (Alopecurus myosuroides); settings: amount of applied herbicide 320 g/ha
Procedure, shortened: (§2)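 Herbicidal effect was rated 3 weeks after treatment, using the scoring criteria of an earlier test. The compound, formulated as an emulsion and diluted in water to a set herbicide amount, had been sprayed uniformly on soil over freshly sown seeds. Growth took place in a greenhouse at 25° C. to 30° C.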

[4] = system: green foxtail; experiment: Test Example 5: herbicidal effect by foliage application, plastic box (Table 20, symbol G); assay type: in vivo, green foxtail (Setaria viridis); settings: foliage application, three weeks after application; for herbicidal effect grade, G: green foxtail: 320 g/ha; for G: green foxtail, herbicidal effect: AAH 320 g/ha
Procedure, shortened: (§3)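 Foliar spray test: emulsion formulation diluted in water to a set application rate, sprayed onto 14-day-old plants raised in diluvial soil at 25° C to 30° C under glass. Both herbicidal effect and crop effect rated visually three weeks later.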

[5] = system: lambsquarters; experiment: Test Example 5: herbicidal effect by foliage application, plastic box (Table 20, symbol O); assay type: in vivo, lambsquarters (Chenopodium album); settings: foliage application, three weeks after application; for herbicidal effect grade, O: lambsquarters: 320 g/ha; for O: lambsquarters, herbicidal effect: AAH 320 g/ha
Procedure, shortened: as §3

[6] = system: windgrass; experiment: Test Example 4: herbicidal effect by soil treatment (Table 19, symbol L); assay type: in vivo, windgrass (Apera spica-venti); settings: amount of applied herbicide 320 g/ha
Procedure, shortened: as §2

[7] = system: chickweed; experiment: Test Example 5: herbicidal effect by foliage application, plastic box (Table 20, symbol P); assay type: in vivo, common chickweed (Stellaria media); settings: foliage application, three weeks after application; for herbicidal effect grade, P: chickweed: 320 g/ha; for P: chickweed, herbicidal effect: AAH 320 g/ha
Procedure, shortened: as §3

[8] = system: Italian ryegrass; experiment: Test Example 5: herbicidal effect by foliage application, plastic box (Table 20, symbol K); assay type: in vivo, Italian ryegrass (Lolium multiflorum); settings: foliage application, three weeks after application; for herbicidal effect grade, K: Italian ryegrass: 320 g/ha; for K: Italian ryegrass, herbicidal effect: AAH 320 g/ha
Procedure, shortened: as §3

[9] = system: lambsquarters; experiment: Test Example 4: herbicidal effect by soil treatment (Table 19, symbol O); assay type: in vivo, lambsquarters (Chenopodium album); settings: amount of applied herbicide 320 g/ha
Procedure, shortened: as §2

[10] = system: wild oat; experiment: Test Example 4: herbicidal effect by soil treatment (Table 19, symbol I); assay type: in vivo, wild oat (Avena fatua); settings: amount of applied herbicide 320 g/ha
Procedure, shortened: as §2

[11] = system: Italian ryegrass; experiment: Test Example 4: herbicidal effect by soil treatment (Table 19, symbol K); assay type: in vivo, Italian ryegrass (Lolium multiflorum); settings: amount of applied herbicide 320 g/ha
Procedure, shortened: as §2

[12] = system: velvetleaf; experiment: Test Example 5: herbicidal effect by foliage application, plastic box (Table 20, symbol M); assay type: in vivo, velvetleaf (Abutilon theophrasti); settings: foliage application, three weeks after application; for herbicidal effect grade, M: velvetleaf: 320 g/ha; for M: velvetleaf, herbicidal effect: AAH 320 g/ha
Procedure, shortened: as §3

[13] = system: southern crabgrass; experiment: Test Example 4: herbicidal effect by soil treatment (Table 19, symbol F); assay type: in vivo, southern crabgrass (Digitaria ciliaris); settings: amount of applied herbicide 320 g/ha
Procedure, shortened: as §2

[14] = system: redroot pigweed; experiment: Test Example 5: herbicidal effect by foliage application, plastic box (Table 20, symbol N); assay type: in vivo, redroot pigweed (Amaranthus retroflexus); settings: foliage application, three weeks after application; for herbicidal effect grade, N: redroot pigweed: 320 g/ha; for N: redroot pigweed, herbicidal effect: AAH 320 g/ha
Procedure, shortened: as §3

[15] = system: oval-leafed pondweed; experiment: Test Example 2: herbicidal activity, application during weed generation under submerged conditions (Table 17, symbol C); assay type: in vivo, oval-leafed pondweed (Monochoria vaginalis); settings: AAH 320 g/ha; application during weed generation, submerged conditions
Procedure, shortened: as §1

[16] = system: Japanese bulrush; experiment: Test Example 1: herbicidal activity, application before weed generation under submerged conditions (Table 16, symbol B); assay type: in vivo, Japanese bulrush (Schoenoplectus juncoides); settings: 320 g/ha applied herbicide
Procedure, shortened: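 Submerged Wagner pots (alluvial soil, 4 cm water) sown with weed seeds and planted with 2.5-leaf rice seedlings; emulsifiable concentrate diluted in water applied to water surface on sowing day. Held in greenhouse at 25-30 °C; injury scored 0-5 by herbicidal rate after three weeks.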

CCOc1cc(F)ccc1-c1sc2ccccc2c1-c1c(O)c(C)nn(C)c1=O [1-061]
herbicidal effect on D (Chinese sprangletop), rating 0-5 [1]: 4 (Herbicidal rate of 70% or more and less than 90%) | herbicidal effect rating, A: late watergrass [2]: 0 (Herbicidal rate of 5% or less (almost no effect)) | herbicidal effect rating, J: blackgrass [3]: 5 (Herbicidal rate of 90% or more (almost completely withered)) | herbicidal effect grade, G: green foxtail [4]: 5 (Herbicidal rate of 90% or more (almost completely withered)) | herbicidal effect grade, O: lambsquarters [5]: 4 (Herbicidal rate of 70% or more and less than 90%) | herbicidal effect rating, L: windgrass [6]: 5 (Herbicidal rate of 90% or more (almost completely withered)) | herbicidal effect grade, P: chickweed [7]: 5 (Herbicidal rate of 90% or more (almost completely withered)) | herbicidal effect grade, K: Italian ryegrass [8]: 4 (Herbicidal rate of 70% or more and less than 90%) | herbicidal effect rating, O: lambsquarters [9]: 3 (Herbicidal rate of 40% or more and less than 70%) | herbicidal effect rating, I: wild oat [10]: 3 (Herbicidal rate of 40% or more and less than 70%) | herbicidal effect rating, K: Italian ryegrass [11]: 3 (Herbicidal rate of 40% or more and less than 70%) | herbicidal effect grade, M: velvetleaf [12]: 5 (Herbicidal rate of 90% or more (almost completely withered)) | herbicidal effect rating, F: southern crabgrass [13]: 5 (Herbicidal rate of 90% or more (almost completely withered)) | herbicidal effect grade, N: redroot pigweed [14]: 5 (Herbicidal rate of 90% or more (almost completely withered)) | herbicidal effect rating, C: oval-leafed pondweed [15]: 4 (Herbicidal rate of 70% or more and less than 90%) | Herbicidal effect on B: Japanese bulrush (grade 0-5) [16]: 3 (Herbicidal rate of 40% or more and less than 70%)

CCCC(=O)Oc1c(C)nn(C)c(=O)c1-c1c(-c2ccc(OC)c(OC)c2)sc2ccccc12 [1-073]
herbicidal effect on D (Chinese sprangletop), rating 0-5 [1]: 3 (Herbicidal rate of 40% or more and less than 70%) | herbicidal effect rating, A: late watergrass [2]: 4 (Herbicidal rate of 70% or more and less than 90%) | herbicidal effect rating, J: blackgrass [3]: 2 (Herbicidal rate of 20% or more and less than 40%) | herbicidal effect grade, G: green foxtail [4]: 5 (Herbicidal rate of 90% or more (almost completely withered)) | herbicidal effect grade, O: lambsquarters [5]: 5 (Herbicidal rate of 90% or more (almost completely withered)) | herbicidal effect rating, L: windgrass [6]: 1 (Herbicidal rate of 5% or more and less than 20%) | herbicidal effect grade, P: chickweed [7]: 5 (Herbicidal rate of 90% or more (almost completely withered)) | herbicidal effect grade, K: Italian ryegrass [8]: 5 (Herbicidal rate of 90% or more (almost completely withered)) | herbicidal effect rating, O: lambsquarters [9]: 5 (Herbicidal rate of 90% or more (almost completely withered)) | herbicidal effect rating, I: wild oat [10]: 2 (Herbicidal rate of 20% or more and less than 40%) | herbicidal effect rating, K: Italian ryegrass [11]: 5 (Herbicidal rate of 90% or more (almost completely withered)) | herbicidal effect grade, M: velvetleaf [12]: 5 (Herbicidal rate of 90% or more (almost completely withered)) | herbicidal effect rating, F: southern crabgrass [13]: 5 (Herbicidal rate of 90% or more (almost completely withered)) | herbicidal effect grade, N: redroot pigweed [14]: 5 (Herbicidal rate of 90% or more (almost completely withered)) | herbicidal effect rating, C: oval-leafed pondweed [15]: 5 (Herbicidal rate of 90% or more (almost completely withered)) | Herbicidal effect on B: Japanese bulrush (grade 0-5) [16]: 4 (Herbicidal rate of 70% or more and less than 90%)

CCCC(=O)Oc1c(C)nn(C)c(=O)c1-c1c(-c2ccc3c(c2)OCCO3)sc2ccccc12 [1-090]
herbicidal effect on D (Chinese sprangletop), rating 0-5 [1]: 1 (Herbicidal rate of 5% or more and less than 20%) | herbicidal effect rating, A: late watergrass [2]: 4 (Herbicidal rate of 70% or more and less than 90%) | herbicidal effect rating, J: blackgrass [3]: 0 (Herbicidal rate of 5% or less (almost no effect)) | G: green foxtail, herbicidal effect [4]: 5 (Herbicidal rate of 90% or more (almost completely withered)) | O: lambsquarters, herbicidal effect [5]: 2 (Herbicidal rate of 20% or more and less than 40%) | herbicidal effect rating, L: windgrass [6]: 0 (Herbicidal rate of 5% or less (almost no effect)) | P: chickweed, herbicidal effect [7]: 4 (Herbicidal rate of 70% or more and less than 90%) | K: Italian ryegrass, herbicidal effect [8]: 3 (Herbicidal rate of 40% or more and less than 70%) | herbicidal effect rating, O: lambsquarters [9]: 2 (Herbicidal rate of 20% or more and less than 40%) | herbicidal effect rating, I: wild oat [10]: 0 (Herbicidal rate of 5% or less (almost no effect)) | herbicidal effect rating, K: Italian ryegrass [11]: 0 (Herbicidal rate of 5% or less (almost no effect)) | M: velvetleaf, herbicidal effect [12]: 4 (Herbicidal rate of 70% or more and less than 90%) | herbicidal effect rating, F: southern crabgrass [13]: 0 (Herbicidal rate of 5% or less (almost no effect)) | N: redroot pigweed, herbicidal effect [14]: 0 (Herbicidal rate of 5% or less (almost no effect)) | herbicidal effect rating, C: oval-leafed pondweed [15]: 4 (Herbicidal rate of 70% or more and less than 90%) | Herbicidal effect on B: Japanese bulrush (grade 0-5) [16]: 4 (Herbicidal rate of 70% or more and less than 90%)

COC(=O)Oc1c(C)nn(C)c(=O)c1-c1c(-c2ccc3c(c2)OCCO3)sc2ccccc12 [1-091]
herbicidal effect on D (Chinese sprangletop), rating 0-5 [1]: 1 (Herbicidal rate of 5% or more and less than 20%) | herbicidal effect rating, A: late watergrass [2]: 3 (Herbicidal rate of 40% or more and less than 70%) | herbicidal effect rating, J: blackgrass [3]: 0 (Herbicidal rate of 5% or less (almost no effect)) | G: green foxtail, herbicidal effect [4]: 5 (Herbicidal rate of 90% or more (almost completely withered)) | O: lambsquarters, herbicidal effect [5]: 4 (Herbicidal rate of 70% or more and less than 90%) | herbicidal effect rating, L: windgrass [6]: 0 (Herbicidal rate of 5% or less (almost no effect)) | P: chickweed, herbicidal effect [7]: 5 (Herbicidal rate of 90% or more (almost completely withered)) | K: Italian ryegrass, herbicidal effect [8]: 4 (Herbicidal rate of 70% or more and less than 90%) | herbicidal effect rating, O: lambsquarters [9]: 4 (Herbicidal rate of 70% or more and less than 90%) | herbicidal effect rating, I: wild oat [10]: 0 (Herbicidal rate of 5% or less (almost no effect)) | herbicidal effect rating, K: Italian ryegrass [11]: 0 (Herbicidal rate of 5% or less (almost no effect)) | M: velvetleaf, herbicidal effect [12]: 5 (Herbicidal rate of 90% or more (almost completely withered)) | herbicidal effect rating, F: southern crabgrass [13]: 3 (Herbicidal rate of 40% or more and less than 70%) | N: redroot pigweed, herbicidal effect [14]: 5 (Herbicidal rate of 90% or more (almost completely withered)) | herbicidal effect rating, C: oval-leafed pondweed [15]: 4 (Herbicidal rate of 70% or more and less than 90%) | Herbicidal effect on B: Japanese bulrush (grade 0-5) [16]: 4 (Herbicidal rate of 70% or more and less than 90%)

Cc1nn(C)c(=O)c(-c2c(-c3ccc4c(c3)OCCO4)sc3ccccc23)c1OC(=O)SC(C)(C)C [1-092]
herbicidal effect on D (Chinese sprangletop), rating 0-5 [1]: 1 (Herbicidal rate of 5% or more and less than 20%) | herbicidal effect rating, A: late watergrass [2]: 3 (Herbicidal rate of 40% or more and less than 70%) | herbicidal effect rating, J: blackgrass [3]: 0 (Herbicidal rate of 5% or less (almost no effect)) | G: green foxtail, herbicidal effect [4]: 3 (Herbicidal rate of 40% or more and less than 70%) | O: lambsquarters, herbicidal effect [5]: 3 (Herbicidal rate of 40% or more and less than 70%) | herbicidal effect rating, L: windgrass [6]: 0 (Herbicidal rate of 5% or less (almost no effect)) | P: chickweed, herbicidal effect [7]: 5 (Herbicidal rate of 90% or more (almost completely withered)) | K: Italian ryegrass, herbicidal effect [8]: 0 (Herbicidal rate of 5% or less (almost no effect)) | herbicidal effect rating, O: lambsquarters [9]: 0 (Herbicidal rate of 5% or less (almost no effect)) | herbicidal effect rating, I: wild oat [10]: 0 (Herbicidal rate of 5% or less (almost no effect)) | herbicidal effect rating, K: Italian ryegrass [11]: 0 (Herbicidal rate of 5% or less (almost no effect)) | M: velvetleaf, herbicidal effect [12]: 5 (Herbicidal rate of 90% or more (almost completely withered)) | herbicidal effect rating, F: southern crabgrass [13]: 0 (Herbicidal rate of 5% or less (almost no effect)) | N: redroot pigweed, herbicidal effect [14]: 0 (Herbicidal rate of 5% or less (almost no effect)) | herbicidal effect rating, C: oval-leafed pondweed [15]: 0 (Herbicidal rate of 5% or less (almost no effect)) | Herbicidal effect on B: Japanese bulrush (grade 0-5) [16]: 3 (Herbicidal rate of 40% or more and less than 70%)
